Read-outs that look alike come from different tables or passages of the source. Where a SMILES comes first, the peptide text is derived from it. [ ]: non-standard residue; d: D form. The star is where a group is joined. Hyp = O=C(O)[C@@H]1C[C@@H](O)CN1; pGlu = O=C1CC[C@@H](C(=O)O)N1; Bn = c1ccc(C*)cc1

Results on 4 compounds are retold here after patent US4522752A, “Retro-inverso analogues of the bradykinin potentiating peptide BPP5a and methods for their preparation” (E.N.I. Ente Nazionale Idrocarburi, priority 1983, dated 1985).

Experiment [1] deals with T1, angiotensin conversion enzyme (Oryctolagus cuniculus, UniProt P12822).
T1 construct: the enzyme isolated from rabbit lungs; from tissue; host or cells: rabbit lung
T1 sequence (P12822 34-1310): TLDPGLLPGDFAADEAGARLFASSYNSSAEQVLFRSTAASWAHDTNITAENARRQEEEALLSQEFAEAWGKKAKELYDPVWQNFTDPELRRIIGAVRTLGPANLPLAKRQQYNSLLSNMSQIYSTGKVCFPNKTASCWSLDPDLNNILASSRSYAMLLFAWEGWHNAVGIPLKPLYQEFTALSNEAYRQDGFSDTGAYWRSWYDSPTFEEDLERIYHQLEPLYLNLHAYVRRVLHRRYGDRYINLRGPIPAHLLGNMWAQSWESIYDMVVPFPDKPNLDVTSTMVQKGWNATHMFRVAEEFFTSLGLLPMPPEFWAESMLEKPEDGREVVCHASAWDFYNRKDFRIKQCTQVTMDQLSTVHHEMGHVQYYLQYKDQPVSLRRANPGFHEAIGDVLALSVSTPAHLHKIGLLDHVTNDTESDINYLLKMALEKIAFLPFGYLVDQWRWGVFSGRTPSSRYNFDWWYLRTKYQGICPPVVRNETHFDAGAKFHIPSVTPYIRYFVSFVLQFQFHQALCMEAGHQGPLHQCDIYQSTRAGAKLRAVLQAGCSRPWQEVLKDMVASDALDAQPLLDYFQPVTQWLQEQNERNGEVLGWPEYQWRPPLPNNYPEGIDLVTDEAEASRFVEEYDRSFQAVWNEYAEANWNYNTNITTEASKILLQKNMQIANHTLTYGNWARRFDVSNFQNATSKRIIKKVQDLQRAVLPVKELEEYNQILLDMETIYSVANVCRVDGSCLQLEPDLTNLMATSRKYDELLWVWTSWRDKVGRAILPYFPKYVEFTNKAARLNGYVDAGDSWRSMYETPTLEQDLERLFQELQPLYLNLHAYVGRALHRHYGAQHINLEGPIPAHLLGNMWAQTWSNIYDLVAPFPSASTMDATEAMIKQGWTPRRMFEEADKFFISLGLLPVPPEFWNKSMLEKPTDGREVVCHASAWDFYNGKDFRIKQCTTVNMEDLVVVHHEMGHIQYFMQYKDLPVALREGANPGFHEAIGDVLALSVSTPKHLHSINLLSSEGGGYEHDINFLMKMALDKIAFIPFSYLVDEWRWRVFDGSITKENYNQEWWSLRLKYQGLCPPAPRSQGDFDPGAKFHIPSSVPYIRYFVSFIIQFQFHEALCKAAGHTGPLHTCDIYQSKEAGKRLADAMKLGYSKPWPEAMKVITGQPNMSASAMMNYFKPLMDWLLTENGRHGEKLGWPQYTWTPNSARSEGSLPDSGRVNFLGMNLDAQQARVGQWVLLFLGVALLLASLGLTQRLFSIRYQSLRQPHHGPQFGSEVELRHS
Kind of experiment: Inhibition of the angiotensin conversion enzyme in vitro (method of Cushman and Cheung). The class given is biochemical. To be noted: enzyme isolated from rabbit lungs, read-out: I50. The procedure: The inhibition of the angiotensin conversion enzyme by the compounds of general formula (I) is measured in vitro by the enzyme isolated from rabbit lungs by the method of Cushman and Cheung [Biochem. Pharmacol., 20, 1637 (1971)].

Experiment [2] has as its target T1, angiotensin conversion enzyme. The conditions noted are these: literature value given in Table 1; read-out: I50 (lit.); cited from earlier work.
For experiment [3] the following is noted: oral administration; needs intravenous administration; cited from earlier work.

As for `C[C@H](NC(=O)C(Cc1ccccc1)C(=O)N[C@H](CCCCN)C(=O)NC1CCC(=O)N1)C(=O)N1CCC[C@H]1C(=O)O` (stereo partly drawn) [gGlp--D-Lys--mPhe--Ala--Pro, gem-pyroglutamyl-D-lysyl-(R,S)-malonyl-(2-benzyl)-alanyl-proline], the IC50 in experiment [1] came to 85000 nM.
`C[C@H](NC(=O)[C@H](Cc1ccccc1)NC(=O)[C@H](CCCCN)NC(=O)[C@@H]1CCC(=O)N1)C(=O)N1CCC[C@H]1C(=O)O` [Glp--Lys--Phe--Ala--Pro] ([pGlu]KFAP-OH): the IC50 in experiment [2] is 70 nM; in experiment [1], 130 nM.
In the case of `CC[C@H](C)[C@H](NC(=O)[C@H](CCC(N)=O)NC(=O)[C@@H]1CCCN1C(=O)[C@H](CCCNC(=N)N)NC(=O)[C@@H]1CCCN1C(=O)[C@H](Cc1c[nH]c2ccccc12)NC(=O)[C@@H]1CCC(=O)N1)C(=O)N1CCC[C@H]1C(=O)N1CCC[C@H]1C(=O)O` [teprotide], the oral activity result in experiment [3] was “inactive orally”.
For `C[C@H](NC(=O)[C@H](Cc1ccccc1)NC(=O)[C@H](CCCCN)NC(=O)[C@@H]1CCC(=O)N1)C(=O)N1C[C@H](OCc2ccccc2)C[C@H]1C(=O)O` [Glp--Lys--Phe--Ala--Hyp(OBz), pyroglutamyl-lysyl-phenylalanyl-alanyl-(4-benzyloxy)-proline] ([pGlu]KFA[Hyp](Bn)-OH), the IC50 in experiment [1] is 110 nM.
